In the NIST ThermoML archive (doi:10.1021/acs.jced.8b01053):
± gives the expanded uncertainty stated by the source.

Settings: Liquid, Ebulliometric method (Recirculating still)

Structure (SMILES) | vapor or sublimation pressure (391.07 K) [kPa] | vapor or sublimation pressure (413.46 K) [kPa] | vapor or sublimation pressure (330.01 K) [kPa] | vapor or sublimation pressure (349.53 K) [kPa]
CC(=O)OCCC(C)C [3-methylbutyl ethanoate] | 50 ± 1 | 100 ± 1 | – | –
CCOC(C)=O [ethyl acetate] | – | – | 50 ± 1 | 100 ± 1
